“And” between values parts separate entries of the source, which are not always exact repeats. Equal entries are not always repeated.
System: 885512-296-R-J2-PDC complex spheroid viability
Test: Anticancer human tumor 885512-296-R-J2-PDC patient-derived breast carcinoma cell line growth inhibition
Details: for viability, T/C: stronger effect = lower value
From the text: Multicellular complex tumor spheroid response to LSD1 Inhibitor Iadademstat in combination with a variety of drugs and investigational agents in selected tumor cell lines
The current study was undertaken to assess response to LSD1 inhibitors in combination with standard-of-care drugs and investigational agents in solid tumor complex spheroid models as well as in the K-562 leukemia. Complex spheroids include a stromal component modeled by human endothelial cells (HUVEC) and fibroblasts modeled by human mesenchymal stem cells (MSCs). The concentration ranges selected for each drug and investigational agent were based upon clinically achievable concentrations if the clinical Cmax of the agent was known.
Compounds. The drugs and investigational agents used in this study are listed on Table 1. All of the agents used, including staurosporine (NSC755774) and gemcitabine (NSC613327), were obtained from the Developmental Therapeutics Program, NCI. FDA-approved anticancer drugs are available from the NCI at http://dtp.nci.nih.gov/branches/dscb/oncology_drugset_explanation.html. Drugs and investigational agents were >95% pure by proton nuclear magnetic resonance (NMR) and liquid chromatography/mass spectrometry (LC/MS). Stock solutions were prepared at 400x in DMSO, stored at -70 degrees C, and diluted in fresh medium prior to their use. The final concentration of DMSO in cell culture wells never exceeded 0.25% (v/v). The FDA-approved anticancer drug set is available from the Developmental Therapeutics Program at https://dtp.cancer.gov/organization/dscb/obtaining/available_plates.htm. All drugs and investigational agents were tested over a range starting from a high concentration at or near the clinical Cmax and decreasing in half-log increments. If the clinical Cmax for an agent had not been determined, the highest concentration tested was 10 microM.
Cell Lines. The patient-derived cancer cell (PDC) lines: 292921-168-R-J2-PDC, K24384-001-R-PDC, and 521955-158-R2-J5-PDC pancreatic carcinomas, 556581-035-R-J1 ovarian carcinoma, 324938-238-R-J1-PDC, 855422-203-R-J1-PDC and 883617-216-R-J1-PDC urothelial bladder carcinomas, 743489-274-T-PDC renal cell carcinoma, 138582-R-J1 Merkel cell tumor, K60290-347-R-J1 and K57222-313-R-J1-PDC glioblastomas, 653999-131-R-J2-PDC, LG0703-F948-PDC, and 349418-098-R-PDC non-small cell lung carcinomas, 885512-296-R-J2-PDC, 171881-019-R-J1-PDC breast carcinomas and 186277-243-T-J2-PDC and 233499-124-R-J2-PDC colon carcinomas were obtained from the NCI Patient-Derived Models Repository (PDMR, https://pdmr.cancer.gov). The established cell lines NCI/ADR-RES (RRID:CVCL_14520 and OVCAR-5 (RRID:CVCL_1628) ovarian carcinomas, 786-O (RRID:CVCL_1051) and A498 (RRID:CVCL_A498) renal cell carcinoma, NCI-H211 (ATCC, cat. CRL-5824; RRID:CVCL_1529), NCI-H196 (ATCC, cat. CRL-5823, RRID:CVCL_1509), SW 1271 (ATCC, cat. CRL-2177, RRID:CVCL_1716) and NCI-H1876 (ATCC, cat. CRL-5902, RRID:CVCL_1503) small cell lung carcinomas, MDA-MB-231 (RRID:CVCL_0062) and MDA-MB-468 (RRID:CVCL_0419)breast carcinomas (10-12). Pooled donor human umbilical vein endothelial cells (HUVEC, Lonza, cat. CC-2519) and human mesenchymal stem cells (hMSC, Lonza, cat. PT-2501) were purchased from Lonza (Walkersville, MD).
Cell Culture. All cells were maintained in an incubator at 37 degrees C and 5% CO2 with 95% humidity. The PDC lines were cultured according to standard operating procedures established by the NCI PDMR (https://pdmr.cancer.gov). Briefly all PDCs were thawed and cultured in Matrigel-coated flasks prepared with a working solution of 1X Ham's F-12 nutrient mix, without supplementation (Invitrogen, Waltham, MA, cat. 11765054), 100 U/mL penicillin-streptomycin (Invitrogen, cat. 15140122), and 2.5% Matrigel (Corning Inc., Corning, NY, cat. 354248) for the first three passages. […]

[1] = curve of first compound, second compound 0.1 µM
[2] = curve of first compound, second compound 0.316 µM
[3] = curve of first compound, second compound 1 µM
[4] = curve of first compound, second compound 3.16 µM
[5] = curve of first compound, second compound 10 µM
[6] = second compound 0.1 µM, first compound 0.00949 µM
[7] = second compound 0.1 µM, first compound 0.03 µM
[8] = second compound 0.1 µM, first compound 0.0949 µM
[9] = second compound 0.1 µM, first compound 0.3 µM
[10] = second compound 0.316 µM, first compound 0.00949 µM
[11] = second compound 0.316 µM, first compound 0.03 µM
[12] = second compound 0.316 µM, first compound 0.0949 µM
[13] = second compound 0.316 µM, first compound 0.3 µM
[14] = second compound 1 µM, first compound 0.00949 µM
[15] = second compound 1 µM, first compound 0.03 µM
[16] = second compound 1 µM, first compound 0.0949 µM
[17] = second compound 1 µM, first compound 0.3 µM
[18] = second compound 3.16 µM, first compound 0.00949 µM
[19] = second compound 3.16 µM, first compound 0.03 µM
[20] = second compound 3.16 µM, first compound 0.0949 µM
[21] = second compound 3.16 µM, first compound 0.3 µM
[22] = second compound 10 µM, first compound 0.00949 µM
[23] = second compound 10 µM, first compound 0.03 µM
[24] = second compound 10 µM, first compound 0.0949 µM
[25] = second compound 10 µM, first compound 0.3 µM
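Further: spheroids exposed to agents for 7 days before viability read.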

`CCc1c2c(nc3ccc(O)cc13)-c1cc3c(c(=O)n1C2)COC(=O)[C@]3(O)CC` + NC1CCC(NC2CC2c2ccccc2)CC1 gave an IC50 [1] of under 0.949 nM, an IC50 [2] of under 0.949 nM and an IC50 [3] of under 0.949 nM. The IC50 [4] was under 0.949 nM, the IC50 [5] was under 0.949 nM and the viability, T/C (second compound 0.1 µM, first compound 0.000949 µM) was 5.05%. It also gave a viability, T/C (second compound 0.1 µM, first compound 0.003 µM) of 2.28%, a viability, T/C [6] of 7.01% and a viability, T/C [7] of 6.9%. For the same compound, the viability, T/C [8] was 6.49%, the viability, T/C [9] was 3.96% and the viability, T/C (second compound 0.316 µM, first compound 0.000949 µM) was 2.42%. The viability, T/C (second compound 0.316 µM, first compound 0.003 µM) was 4.76%, the viability, T/C [10] was 4.46% and the viability, T/C [11] was 6.46%. The viability, T/C [12] was 6.66%, the viability, T/C [13] was 4.85% and the viability, T/C (second compound 1 µM, first compound 0.000949 µM) was 4.94%. The viability, T/C (second compound 1 µM, first compound 0.003 µM) was 2.3%, the viability, T/C [14] was 1.74% and the viability, T/C [15] was 1.31%. For the same compound, the viability, T/C [16] was 1.26%, the viability, T/C [17] was 3.93% and the viability, T/C (second compound 3.16 µM, first compound 0.000949 µM) was 1.98%. For the same compound, the viability, T/C (second compound 3.16 µM, first compound 0.003 µM) was 2.41%, the viability, T/C [18] was 1.65% and the viability, T/C [19] was 4.17%. For the same compound, the viability, T/C [20] was 1.31%, the viability, T/C [21] was 6.19% and the viability, T/C (second compound 10 µM, first compound 0.000949 µM) was 2.47%. For the same compound, the viability, T/C (second compound 10 µM, first compound 0.003 µM) was 1.92%, the viability, T/C [22] was 1.39% and the viability, T/C [23] was 3.6%. For the same compound, the viability, T/C [24] was 3.36% and the viability, T/C [25] was 1.14%.

For `Nc1ncn(C2CC(O)C(CO)O2)c(=O)n1` (configuration not stated) + NC1CC1c1ccc(-c2cccc(O)c2)cc1, the IC50 [1] was 77.9 nM, the IC50 [2] was 72.5 nM and the IC50 [3] was 86.1 nM. For the same compound, the IC50 [4] was 72.4 nM, the IC50 [5] was 46.4 nM and the viability, T/C (second compound 0.1 µM, first compound 0.00316 µM) was 116%. The viability, T/C (second compound 0.1 µM, first compound 0.01 µM) was 106%, the viability, T/C (second compound 0.1 µM, first compound 0.0316 µM) was 79% and the viability, T/C (second compound 0.1 µM, first compound 0.1 µM) was 41.6%. The viability, T/C (second compound 0.1 µM, first compound 0.316 µM) was 21.4%, the viability, T/C (second compound 0.1 µM, first compound 1 µM) was 13.3% and the viability, T/C (second compound 0.316 µM, first compound 0.00316 µM) was 106%. It also gave a viability, T/C (second compound 0.316 µM, first compound 0.01 µM) of 112%, a viability, T/C (second compound 0.316 µM, first compound 0.0316 µM) of 70.5% and a viability, T/C (second compound 0.316 µM, first compound 0.1 µM) of 43.1%. It also gave a viability, T/C (second compound 0.316 µM, first compound 0.316 µM) of 23.4%, a viability, T/C (second compound 0.316 µM, first compound 1 µM) of 15.9% and a viability, T/C (second compound 1 µM, first compound 0.00316 µM) of 107%. The viability, T/C (second compound 1 µM, first compound 0.01 µM) was 99.4%, the viability, T/C (second compound 1 µM, first compound 0.0316 µM) was 81.2% and the viability, T/C (second compound 1 µM, first compound 0.1 µM) was 44.5%. It also gave a viability, T/C (second compound 1 µM, first compound 0.316 µM) of 22.9%, a viability, T/C (second compound 1 µM, first compound 1 µM) of 13.4% and a viability, T/C (second compound 3.16 µM, first compound 0.00316 µM) of 95.5%. The viability, T/C (second compound 3.16 µM, first compound 0.01 µM) was 103%, the viability, T/C (second compound 3.16 µM, first compound 0.0316 µM) was 73.1% and the viability, T/C (second compound 3.16 µM, first compound 0.1 µM) was 40.6%. It also gave a viability, T/C (second compound 3.16 µM, first compound 0.316 µM) of 21.7%, a viability, T/C (second compound 3.16 µM, first compound 1 µM) of 13.4% and a viability, T/C (second compound 10 µM, first compound 0.00316 µM) of 72%. For the same compound, the viability, T/C (second compound 10 µM, first compound 0.01 µM) was 69.5%, the viability, T/C (second compound 10 µM, first compound 0.0316 µM) was 57.5% and the viability, T/C (second compound 10 µM, first compound 0.1 µM) was 34.6%. The viability, T/C (second compound 10 µM, first compound 0.316 µM) was 18.3% and the viability, T/C (second compound 10 µM, first compound 1 µM) was 11.4%.

In the case of `O=C(c1cc(Cc2n[nH]c(=O)c3ccccc23)ccc1F)N1CCN(C(=O)C2CC2)CC1`, the viability, T/C (compound 0.0316 µM) is reported as 81.2% and 95.5%, the viability, T/C (compound 0.1 µM) is reported as 92.8% and 89.7% and the viability, T/C (compound 0.316 µM) is reported as 57.2% and 74.8%. The viability, T/C (compound 1 µM) was 17.2% and 46.9%, the viability, T/C (compound 3.16 µM) was 10.2% and 11.8% and the viability, T/C (compound 10 µM) was 7.83% and 6.41%. For the same compound, the IC50 (curve of compound) was 395 nM and 813 nM.

Compound `O=C(C=Cc1cccc(S(=O)(=O)Nc2ccccc2)c1)NO` + NC1CCC(NC2CC2c2ccccc2)CC1 has an IC50 [1] of 74.6 nM, an IC50 [2] of 84.5 nM and an IC50 [3] of 84.7 nM. It also gave an IC50 [4] of 70.7 nM, an IC50 [5] of 50 nM and a viability, T/C [6] of 104%. The viability, T/C [7] was 80.2%, the viability, T/C [8] was 42.8% and the viability, T/C [9] was 19.8%. It also gave a viability, T/C (second compound 0.1 µM, first compound 0.949 µM) of 13.6%, a viability, T/C (second compound 0.1 µM, first compound 3 µM) of 17.1% and a viability, T/C [10] of 112%. The viability, T/C [11] was 87.6%, the viability, T/C [12] was 45.6% and the viability, T/C [13] was 22.4%. The viability, T/C (second compound 0.316 µM, first compound 0.949 µM) was 15.7%, the viability, T/C (second compound 0.316 µM, first compound 3 µM) was 14.6% and the viability, T/C [14] was 108%. It also gave a viability, T/C [15] of 84.4%, a viability, T/C [16] of 47.1% and a viability, T/C [17] of 19.9%. It also gave a viability, T/C (second compound 1 µM, first compound 0.949 µM) of 12.3%, a viability, T/C (second compound 1 µM, first compound 3 µM) of 11.9% and a viability, T/C [18] of 90.2%. It also gave a viability, T/C [19] of 69.2%, a viability, T/C [20] of 43.8% and a viability, T/C [21] of 24.1%. For the same compound, the viability, T/C (second compound 3.16 µM, first compound 0.949 µM) was 12.7%, the viability, T/C (second compound 3.16 µM, first compound 3 µM) was 12.7% and the viability, T/C [22] was 90.8%. It also gave a viability, T/C [23] of 65.5%, a viability, T/C [24] of 30.6% and a viability, T/C [25] of 17.3%. For the same compound, the viability, T/C (second compound 10 µM, first compound 0.949 µM) was 8.4% and the viability, T/C (second compound 10 µM, first compound 3 µM) was 16.5%.

From PubChem BioAssay AID1918946 (Molecular Pharmacology Branch, DTP, NCI, 2023)
